Experiment [1] concerns GPVI dimerization on platelets. As to the kind of experiment: Effect of agonists and inhibitors on 9E18 binding to platelets (GPVI dimerization), flow cytometry. The class given is cell-based, human. The settings on record: for effect on 9E18 binding / GPVI dimerization of activated platelets / effect on 9E18 binding to resting as well as activated platelets: ADP-; for effect on 9E18 binding / GPVI dimerization of activated platelets: TRAP- or PMA-activated platelets; for effect on 9E18 binding to resting as well as activated platelets: TRAP- or PMA-activated washed platelets.

Experiment [2] concerns ADP-induced GPVI dimerization. Put plainly: ADP-induced 9E18 binding to platelets (PRP) of patients treated with P2Y12 antagonists, ex vivo. The class given is in vivo, human. An excerpt: FIG. 3: 9E18 as a marker of platelet activation and reactivity: Blood samples were obtained from (A) a cohort of patients with coronary artery disease admitted for percutaneous coronary intervention (n=45) and (B) healthy volunteers (n=40). For each subject, GPVI dimerization, represented by the extent of 9E18 positive platelets, is plotted against P-selectin exposure. Blood samples were obtained from (C) patients treated by prasugel and (D) healthy volunteers. For each subject the binding of FITC-coupled 9E18 to platelets was measured by flow cytometry after incubation of the PRP with buffer or ADP (10 μM) for 20 min.
FIG. 4: 9E18 as a marker of platelet activation and reactivity A: 9E18 binding to platelets and P-selectin exposure were measured in blood samples (PRP) obtained from a cohort of patients with CAD admitted for percutaneous coronary intervention (n=45). B: ADP-induced binding of 9E18 to platelets was measured on blood samples (PRP) from normal subjects and patients with CAD treated by clopidogrel (n=26). Results are expressed as the ratio between the levels of 9E18 binding to ADP-stimulated/non-stimulated samples×100.C: ADP-induced binding to platelets of patients treated by clopidogrel was plotted against corresponding data of the VASP phosphorylation assay.
Blood samples were obtained from a cohort of patients with coronary artery disease (CAD) referred to the department of cardiology of Bichat hospital for percutaneous coronary intervention (BIOCORE-2 study, Clinical Trial Registration—URL: http://clinicaltrials.gov/ct2/show/NCT01186666?term=NCT01186666&rank=1). The study complies with the Declaration of Helsinky and was approved by the institutional ethics committee. All of the patients provided written informed consent. Blood was drawn on 0.109M citrate the day after percutaneous coronary intervention (PCI). PRP, a waste of the established protocol, was used for this study. Analysis was performed less than one hour after blood sampling, on PRP using FITC-coupled 9E18, 3J24 or anti-P-selectin. […]

In experiment [3] the target is T1, GPVI dimers on shear-activated platelets (Homo sapiens, UniProt Q9HCN6).
T1 construct: Blood was obtained from healthy volunteers; endogenous in cells; host or cells: human platelets (whole blood, PRP, washed platelets or lysates) from healthy volunteers or coronary artery disease patients
T1 sequence (Q9HCN6 21-339): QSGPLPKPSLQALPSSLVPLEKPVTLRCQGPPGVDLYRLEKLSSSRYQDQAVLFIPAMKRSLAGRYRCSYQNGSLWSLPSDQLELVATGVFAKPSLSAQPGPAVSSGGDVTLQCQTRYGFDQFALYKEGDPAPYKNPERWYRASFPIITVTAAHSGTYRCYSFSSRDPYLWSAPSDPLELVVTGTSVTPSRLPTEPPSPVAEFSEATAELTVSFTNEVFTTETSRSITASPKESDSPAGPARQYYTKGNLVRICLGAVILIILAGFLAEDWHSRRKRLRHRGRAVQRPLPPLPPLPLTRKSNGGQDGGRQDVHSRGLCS
T1 sequence (P30273 19-86 partner): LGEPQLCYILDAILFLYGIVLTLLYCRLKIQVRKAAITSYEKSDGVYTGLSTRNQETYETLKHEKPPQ
Put plainly: Shear-induced platelet activation, 9E18 binding. In kind it is cell-based. As to conditions: washed platelets.

Experiment [4] deals with P-selectin exposure on platelets. Put plainly: P-selectin exposure on platelets, flow cytometry. The class given is cell-based, human. As to conditions: washed platelets.
The next experiment deals with FcRγ. Put plainly: FcRγ phosphorylation in activated platelets. In kind it is cell-based, human. The settings on record: conditions leading to GPVI dimerization.
For experiment [5], the system named is platelet adhesion to immobilized collagen. Put plainly: GPVI-dependent platelet adhesion to immobilized collagen (static). In kind it is cell-based, human. As to conditions: PMA-treated platelets.
Another experiment deals with collagen. Put plainly: Binding of recombinant soluble GPVI to collagen (purified proteins, microtitration wells). Details: species or system equine. As to conditions: Example 1.
Experiment [6] concerns the target T2, 9E18 binding to immobilized GPVI-Fc (Homo sapiens, UniProt Q9HCN6).
T2 construct: Recombinant soluble GPVI was obtained as the extracellular domain of human GPVI; made in house; host or cells: HEK cells
T2 sequence (Q9HCN6 21-267 limits assumed): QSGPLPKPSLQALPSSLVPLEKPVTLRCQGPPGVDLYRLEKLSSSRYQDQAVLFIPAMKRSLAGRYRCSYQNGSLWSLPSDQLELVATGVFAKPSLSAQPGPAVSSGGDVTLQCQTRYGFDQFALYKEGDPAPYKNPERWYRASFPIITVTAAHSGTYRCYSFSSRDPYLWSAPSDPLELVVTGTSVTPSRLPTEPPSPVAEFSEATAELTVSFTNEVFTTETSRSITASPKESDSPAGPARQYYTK
Put plainly: Competition: binding of 9E18 to immobilized GPVI-Fc in presence of soluble GPVI.

Experiment [7] addresses T3, 9E18 binding to stimulated platelets (Homo sapiens, UniProt Q9HCN6).
T3 construct: Blood was obtained from healthy volunteers; endogenous in cells; host or cells: human platelets (whole blood, PRP, washed platelets or lysates) from healthy volunteers or coronary artery disease patients
T3 sequence (Q9HCN6 21-339): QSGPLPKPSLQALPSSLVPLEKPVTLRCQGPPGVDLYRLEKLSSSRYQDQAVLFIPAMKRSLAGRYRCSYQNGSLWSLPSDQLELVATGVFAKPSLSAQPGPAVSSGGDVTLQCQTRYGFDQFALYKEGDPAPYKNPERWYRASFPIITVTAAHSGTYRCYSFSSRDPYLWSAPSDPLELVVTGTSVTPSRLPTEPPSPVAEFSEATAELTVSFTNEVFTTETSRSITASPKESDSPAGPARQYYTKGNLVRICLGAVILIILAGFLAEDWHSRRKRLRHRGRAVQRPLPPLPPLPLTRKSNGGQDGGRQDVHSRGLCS
T3 sequence (P30273 19-86 partner): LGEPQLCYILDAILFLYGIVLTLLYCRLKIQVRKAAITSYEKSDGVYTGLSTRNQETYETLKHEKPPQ
Put plainly: Inhibition of 9E18 binding to stimulated platelets by soluble GPVI or IV.3. The class given is cell-based. As to the method:
Resting and activated platelets (5×10^7 mL^−1 in whole blood or PRP or buffer) were incubated with FITC-coupled anti-GPVI or P-selectin antibodies for 20 min and, when needed fixed with 1% PFA. Samples were analyzed by flow cytometry using Epics XL.MCL (Coulter) or LSRII (Becton Dickinson Biosciences) apparatus. Platelet glycoprotein quantification was performed using the quantification kit, Platelet GP screen (Byocytex, Marseille, France).

“And” between values parts separate entries of the source, which are not always exact repeats. Equal entries are not always repeated. “Also recorded” adds a separate entry of the source. Where two headings read alike, the source gives them in different places.

`CC(=O)N[C@@H](C(=O)O)C(C)(C)SN=O` (racemic) [SNAP]: in [1], the “effect on 9E18 binding / GPVI dimerization of activated platelets” value is “same effect; also recorded: inhibited” and the “effect on 9E18 binding to resting as well as activated platelets” value is “inhibited”.
Turning to `CSc1nc(N)c2ncn([C@@H]3O[C@H](COP(=O)(O)O)[C@@H](O)[C@H]3O)c2n1` [2MeSAMP], in experiment [1], the “effect on 9E18 binding to ADP- or TRAP-stimulated platelets” value was “inhibited; also recorded: prevented” and the “effect on ADP-induced 9E18 binding to platelets” value is “blocked”.
Take `Cc1ccc(-c2nn(C(C)(C)C)c3ncnc(N)c23)cc1` [PP1]: the “level of PMA-induced 9E18 binding in presence of inhibitor” value in [1] (20 μM inhibitor, PMA-treated platelets) came out at 28.4%.
In the case of `COC(=O)[C@H](c1ccccc1Cl)N1CCc2sccc2C1` [clopidogrel, (+)-(S)-methyl 2-(2-chlorophenyl)-2-(6,7-dihydrothieno[3,2-c]pyridin-5(4H)-yl)acetate], in experiment [2] (75 mg, PRP), the “ADP-induced 9E18 binding response in treated patients vs normal subjects” value is listed as “highly significant reduction”.
Turning to `CNC[C@H](O)c1ccc(O)c(O)c1` [Epinephrine], in experiment [1], the “factor of increase of 9E18 binding to platelets” value worked out at 1.5.
On to “vWF: von Willebrand factor added to washed platelets”, for which, in experiment [3], the “effect of addition on shear-induced platelet aggregation and level of 9E18 binding” value is given as “parallel increase”.
In the case of apyrase, in experiment [1] (ADP), the “effect on ADP-induced 9E18 binding to platelets” value is listed as “fully prevented”. In addition, in experiment [1] (ADP), the “inhibition of ADP-induced binding of 9E18” value turned out to be 85%. Besides, the “reduction of TRAP-induced binding of 9E18” value in experiment [1] is given as 75%; in experiment [1] (listed as Apyrase), 50%.
As for `CCCCC[C@H](O)/C=C/[C@H]1[C@H](O)CC(=O)[C@@H]1CCCCCCC(=O)O` [PGE1, prostaglandin E1], the “effect on 9E18 binding to ADP- or TRAP-stimulated platelets” value in experiment [1] (ADP or TRAP) is “dropped to basal level”. In addition, in experiment [1], the “effect on 9E18 binding / GPVI dimerization of activated platelets” value was “drastically reduced; also recorded: inhibited” and the “effect on 9E18 binding to resting as well as activated platelets” value is “reduced”. The “effect on PMA-induced 9E18 binding to platelets” value in experiment [1] (PMA) is recorded as “greatly decreased”. The “effect on 9E18 binding in the absence of agonist” value in [1] (preincubation, no agonist) is given as “lowered”.
For the molecule `Nc1ncnc2c1ncn2[C@@H]1O[C@H](COP(=O)(O)OP(=O)(O)O)[C@@H](O)[C@H]1O` [ADP, adenosine diphosphate], in experiment [1], the “effect of agonist on binding of 9E18 to platelets” value is “increased”. Further, the “surface exposure of P-selectin induced by agonist” value in experiment [4] is listed as “induced surface exposure of P-selectin”. Also, the “FcRγ phosphorylation in activated platelets” value in the experiment with FcRγ was “not phosphorylated”.
For `CCCCCCCCCCCCCC(=O)O[C@@H]1[C@@H](C)[C@@]2(O)[C@@H](C=C(CO)C[C@]3(O)C(=O)C(C)=C[C@@H]23)[C@@H]2C(C)(C)[C@]12OC(C)=O` [PMA], the “effect of agonist on binding of 9E18 to platelets” value in experiment [1] is listed as “significantly increased”. For the same molecule, the “level of 9E18 binding to PMA-treated platelets” value in [1] (PMA alone) was 31.5±4% and 27.7%. The “effect on GPVI-dependent platelet adhesion to immobilized collagen” value in [5] is “increase”. The “FcRγ phosphorylation in activated platelets” value in the experiment with FcRγ is “not phosphorylated”.
Take `COc1ccc2c(c1)c(CC(=O)O)c(C)n2C(=O)c1ccc(Cl)cc1` [indomethacine, Indomethacin]: in [1] (ADP or TRAP), the “effect on 9E18 binding to ADP- or TRAP-stimulated platelets” value is “no effect”.
On to `CC(=O)Oc1cc2c(s1)CCN(C(C(=O)C1CC1)c1ccccc1F)C2` (stereo not shown) [prasugrel], for which the “ADP-induced increase of 9E18 binding to platelets of treated patients” value in [2] (PRP, ADP 10 μM, good responders by VASP test) was “not to platelets of 9 patients treated by prasugrel; also recorded: blocked”. Also, the “9E18 binding and VASP phosphorylation in response to ADP” value in [2] (one treated patient (low response)) is given as “remained increased”.

B1: GPVI-His: extracellular domain of human GPVI fused to a poly-His Tag, monomeric (protein, UniProt Q9HCN6 21-267, looked up)
extracellular domain: QSGPLPKPSLQALPSSLVPLEKPVTLRCQGPPGVDLYRLEKLSSSRYQDQAVLFIPAMKRSLAGRYRCSYQNGSLWSLPSDQLELVATGVFAKPSLSAQPGPAVSSGGDVTLQCQTRYGFDQFALYKEGDPAPYKNPERWYRASFPIITVTAAHSGTYRCYSFSSRDPYLWSAPSDPLELVVTGTSVTPSRLPTEPPSPVAEFSEATAELTVSFTNEVFTTETSRSITASPKESDSPAGPARQYYTK
modifications: extracellular domain poly-His tag
notes: extracellular domain of human GPVI fused to a poly-His Tag, monomeric
Usually IC50 stands for the point on the concentration scale where inhibition reaches its midpoint. The term Kd denotes the concentration at which binding is half-saturated. For the molecule B1, at collagen, the affinity for collagen was 14.7 ± 3.27 µg/mL. Moreover, the “IC50, inhibition of 9E18 binding to immobilized GPVI-Fc by soluble GPVI” value in [6] was determined as 3.7 ± 2.2 mg/L. Besides, the “inhibition of 9E18 binding to GPVI-Fc” value in experiment [6] (GPVI-His up to 10 μg·mL^−1) is listed as 70%. Further, the IC50 in [6] (molar value in brackets, Example 1, read-out: IC50, inhibition of 9E18 binding to immobilized GPVI-Fc by soluble GPVI) turned out to be 0.074 µM. The dissociation constant Kd in experiment [6] (value in brackets after IC50, Example 2, read-out: Kd from competition of 9E18 binding to GPVI-Fc) was determined as 0.078 µM. For the same molecule, the “inhibition of 9E18 binding to stimulated platelets” value in [7] is reported as “not”; in [7] (listed as monomers) it was “not by monomers”.

Source of the values: US9029095B2, “Method and kits for determining platelet susceptibility to activation in a patient” (Institut National de la Sante et de la Recherche Medicale …, priority 2010, dated 2015).
